# Measurements as given in US20230277630A1, “METHODS AND COMPOSITIONS FOR TREATING AMYOTROPHIC LATERAL SCLEROSIS” (Amylyx Pharmaceuticals, Inc., priority 2022, published 2023).
# Experiments:
# [1] = target: T1, human liver microsomes (HLM) (Homo sapiens, UniProt P20813); experiment: CYP reaction phenotyping using HLM and chemical inhibitors (% remaining); assay type: in vitro ADME; conditions: human, microsomes, 5 μM, pH 7.4
# T1 construct: from tissue; host or cells: pooled human liver microsomes
# T1 sequence (P20813 1-491): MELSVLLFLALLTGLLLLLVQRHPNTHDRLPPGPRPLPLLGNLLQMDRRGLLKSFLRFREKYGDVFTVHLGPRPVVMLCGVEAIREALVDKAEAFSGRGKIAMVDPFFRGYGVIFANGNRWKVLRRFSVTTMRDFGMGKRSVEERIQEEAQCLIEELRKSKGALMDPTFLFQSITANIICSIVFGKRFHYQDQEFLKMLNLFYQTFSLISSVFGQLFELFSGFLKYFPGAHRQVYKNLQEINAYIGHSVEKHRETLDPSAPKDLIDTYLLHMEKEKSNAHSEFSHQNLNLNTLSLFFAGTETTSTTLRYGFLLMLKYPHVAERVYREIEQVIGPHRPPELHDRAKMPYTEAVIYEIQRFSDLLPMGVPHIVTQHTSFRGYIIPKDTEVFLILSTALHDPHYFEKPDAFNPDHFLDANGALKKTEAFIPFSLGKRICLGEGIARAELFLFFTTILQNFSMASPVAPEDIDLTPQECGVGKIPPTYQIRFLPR
# Description: (§1) % Remaining of TA=100×At/A0
# (§2) Where, At and A0 are the peak area ratio of TA to IS at time t and at time zero, respectively.
# [2] = target: T2, human liver microsomes (HLM) (Homo sapiens, UniProt P10632); experiment: as above; assay type: in vitro ADME; conditions: human, microsomes, 5 μM, pH 7.4
# T2 construct: from tissue; host or cells: pooled human liver microsomes
# T2 sequence (P10632 1-490): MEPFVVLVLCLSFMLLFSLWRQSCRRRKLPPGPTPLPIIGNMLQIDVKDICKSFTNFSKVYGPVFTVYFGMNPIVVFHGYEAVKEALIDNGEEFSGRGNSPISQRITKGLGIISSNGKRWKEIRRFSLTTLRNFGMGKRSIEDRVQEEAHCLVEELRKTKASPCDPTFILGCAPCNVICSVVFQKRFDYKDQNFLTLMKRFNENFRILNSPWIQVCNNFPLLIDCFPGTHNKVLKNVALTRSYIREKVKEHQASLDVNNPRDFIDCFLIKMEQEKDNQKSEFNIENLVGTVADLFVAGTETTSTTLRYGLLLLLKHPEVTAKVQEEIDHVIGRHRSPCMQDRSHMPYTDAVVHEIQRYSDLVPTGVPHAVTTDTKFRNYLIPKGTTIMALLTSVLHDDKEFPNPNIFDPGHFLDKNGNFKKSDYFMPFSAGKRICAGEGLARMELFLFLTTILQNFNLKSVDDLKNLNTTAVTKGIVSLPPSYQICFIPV
# Description: as §1, §2
# [3] = system: P-gp and BCRP; experiment: in vitro; conditions: human
# Protocol: The P-gp and BCRP substrate assessment was conducted in C2BBe1 cell monolayers. […] LY was co-dosed with each dosing solution at a nominal concentration of 200 μM.
# The cell culture medium was aspirated, and the cell monolayers were rinsed once with HBSSg_7.4. […] For receiver samples, aliquots (300 μL) were taken at pre-selected time points. […] For donor samples, aliquots (50 μL) were taken at pre-selected time points without replacement.
# [4] = Chemical stability in HBSSg_7.4 and HBSS_8.5; assay type: physicochemical
# Protocol: The test article was prepared in DMSO stock (0.5 mM), and aliquots of the DMSO stock were added to each matrix. The nominal concentration of each component was 0.5 μM in each matrix. […] At pre-determined time points, an equal volume of acetonitrile with internal standard was added to each vial, and the mixture was placed at 4° C. until the end of the assay. The peak areas of the test article and IS of each sample were determined by LC-MS/MS, and the ratios of the peak areas (analyte: IS) were calculated.
# [5] = Caco-2, pH 7.4, AP-to-BL Papp of TUDCA
# [6] = Caco-2, pH 7.4, AP-to-BL Recovery of TUDCA
# [7] = Caco-2, pH 7.4, BL-to-AP Papp of TUDCA
# [8] = Caco-2, pH 7.4, BL-to-AP Recovery of TUDCA
smiles,measurement,setting,value
"C[C@H](CCC(=O)NCCS(=O)(=O)O)[C@H]1CC[C@H]2[C@@H]3[C@@H](O)C[C@@H]4C[C@H](O)CC[C@]4(C)[C@H]3CC[C@]12C [TUDCA, tauroursodeoxycholic acid]",% Remaining of TA (n = 3) Average,[1]; 0 h,100%
same,% Remaining of TA (n = 3) Average,[1]; 5 min,112%
same,% Remaining of TA (n = 3) Average,[1]; 10 min,112%
same,% Remaining of TA (n = 3) Average,[1]; 20 min,122%
same,% Remaining of TA (n = 3) Average,[1]; 0.5 h,116%
same,% Remaining of TA (n = 3) Average,[1]; 1 h,102%
same,% Remaining of TA (n = 3) Average,[2]; 0 h,100%
same,% Remaining of TA (n = 3) Average,[2]; 5 min,101%
same,% Remaining of TA (n = 3) Average,[2]; 10 min,103%
same,% Remaining of TA (n = 3) Average,[2]; 20 min,95.5%
same,% Remaining of TA (n = 3) Average,[2]; 0.5 h,105%
same,% Remaining of TA (n = 3) Average,[2]; 1 h,97.7%
same,Papp A→B at 1.62 µM,[3]; [5],9.59 ×10⁻⁶ cm/s
same,Papp A→B at 81 µM,[3]; [5],5.84 ×10⁻⁶ cm/s
same,Papp A→B at […],[3]; [5],7.47 ×10⁻⁶ cm/s
same,recovery at 1.62 μM,[3]; [6],78.5%
same,recovery at 16.2 μM,[3]; [6],71.6%
same,recovery at 81 μM,[3]; [6],101%
same,Papp B→A at 1.62 µM,[3]; [7],1.75 ×10⁻⁶ cm/s
same,Papp B→A at 16.2 µM,[3]; [7],0.553 ×10⁻⁶ cm/s
same,Papp B→A at 81 µM,[3]; [7],2.66 ×10⁻⁶ cm/s
same,Papp B→A at […],[3]; [7],1.94 ×10⁻⁶ cm/s
same,recovery at 1.62 μM,[3]; [8],79.5%
same,recovery at 16.2 μM,[3]; [8],76.1%
same,recovery at 81 μM,[3]; [8],101%
"O=C(O)CCCc1ccccc1 [PB, sodium phenylbutyrate]",Percent of the 0-minute value,"[4]; HBSSg_7.4, Overnight (1020-[…])",105%
same,Percent of the 0-minute value,"[4]; HBSSg_7.4, sampling time 0 minutes",100%
same,Percent of the 0-minute value,"[4]; HBSSg_7.4, sampling time 120 minutes",99.3%
same,chemical stability in the tested matrices,"[4]; HBSSg_7.4 and HBSS_8.5, 37° C., 0.5 μM",appeared to be stable
same,Percent of the 0-minute value,"[4]; HBSSg_8.5, Overnight (1020-[…])",98.6%
same,Percent of the 0-minute value,"[4]; HBSSg_8.5, sampling time 0 minutes",100%
same,Percent of the 0-minute value,"[4]; HBSSg_8.5, sampling time 120 minutes",79.4%
